Measured values from PubChem BioAssay AID2060601 (Molecular Pharmacology Branch, DTP, NCI, 2025).

System: 874868-142-R-J2-PDC complex spheroids, growth % test/control
Test: Anticancer human tumor 874868-142-R-J2-PDC patient-derived head and neck squamous carcinoma cell line growth inhibition [CLK]
Settings: for IC50: curve of first compound; for viability, T/C: stronger effect = lower value
Method in brief: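 Multi-cell-type spheroids combined patient-derived tumor cells with HUVEC endothelial cells and human mesenchymal stem cells. Paired agents were dosed in half-log steps down from about clinical Cmax, or from 10 microM where Cmax was unknown.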
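Note: spheroids exposed to the compounds for 7 days.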
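Throughout, for viability, T/C: 100% = DMSO vehicle control viability.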

Question: With CC(C)CC(NC(=O)C(Cc1ccccc1)NC(=O)c1cnccn1)B(O)O (configuration not stated) + CNC(=O)c1ccc(Nc2nc(OC3CCCC3)c3c(-c4ccc5nc(C)oc5c4)c[nH]c3n2)c(OC)c1 as the compound, how does the IC50 (second compound 0.0316 µM) read?
Answer: 4.48 nM

Question: And the IC50 (second compound 0.1 µM)?
Answer: 4.69 nM

Question: And the IC50 (second compound 0.316 µM)?
Answer: 4.24 nM

Question: And the IC50 (second compound 1 µM)?
Answer: < 0.949 nM

Question: And the IC50 (second compound 3.16 µM)?
Answer: < 0.949 nM

Question: And the IC50 (second compound 10 µM)?
Answer: < 0.949 nM

Question: And the viability, T/C (second compound 0.0316 µM, first compound 0.000949 µM)?
Answer: 96.8%

Question: What about the viability, T/C (second compound 0.0316 µM, first compound 0.003 µM) of the same compound?
Answer: 76.4%

Question: And the viability, T/C (second compound 0.0316 µM, first compound 0.00949 µM)?
Answer: 0.57%

Question: And the viability, T/C (second compound 0.0316 µM, first compound 0.03 µM)?
Answer: 0.3%

Question: What about the viability, T/C (second compound 0.0316 µM, first compound 0.0949 µM) of the same compound?
Answer: 0.21%

Question: What about the viability, T/C (second compound 0.0316 µM, first compound 0.3 µM) of the same compound?
Answer: 0.23%

Question: And the viability, T/C (second compound 0.1 µM, first compound 0.000949 µM)?
Answer: 89.5%

Question: What about the viability, T/C (second compound 0.1 µM, first compound 0.003 µM) of the same compound?
Answer: 80.7%

Question: And the viability, T/C (second compound 0.1 µM, first compound 0.00949 µM)?
Answer: 1.32%

Question: And the viability, T/C (second compound 0.1 µM, first compound 0.03 µM)?
Answer: 0.44%

Question: And the viability, T/C (second compound 0.1 µM, first compound 0.0949 µM)?
Answer: 0.2%

Question: What about the viability, T/C (second compound 0.1 µM, first compound 0.3 µM) of the same compound?
Answer: 4.13%

Question: What about the viability, T/C (second compound 0.316 µM, first compound 0.000949 µM) of the same compound?
Answer: 66.8%

Question: What about the viability, T/C (second compound 0.316 µM, first compound 0.003 µM) of the same compound?
Answer: 70.8%

Question: And the viability, T/C (second compound 0.316 µM, first compound 0.00949 µM)?
Answer: 6.3%

Question: And the viability, T/C (second compound 0.316 µM, first compound 0.03 µM)?
Answer: 0.22%

Question: What about the viability, T/C (second compound 0.316 µM, first compound 0.0949 µM) of the same compound?
Answer: 0.26%

Question: And the viability, T/C (second compound 0.316 µM, first compound 0.3 µM)?
Answer: 5.41%

Question: And the viability, T/C (second compound 1 µM, first compound 0.000949 µM)?
Answer: 47.7%

Question: What about the viability, T/C (second compound 1 µM, first compound 0.003 µM) of the same compound?
Answer: 31.9%

Question: What about the viability, T/C (second compound 1 µM, first compound 0.00949 µM) of the same compound?
Answer: 0.47%

Question: What about the viability, T/C (second compound 1 µM, first compound 0.03 µM) of the same compound?
Answer: 0.24%

Question: And the viability, T/C (second compound 1 µM, first compound 0.0949 µM)?
Answer: 5.77%

Question: What about the viability, T/C (second compound 1 µM, first compound 0.3 µM) of the same compound?
Answer: 17.3%

Question: And the viability, T/C (second compound 3.16 µM, first compound 0.000949 µM)?
Answer: 45.3%

Question: And the viability, T/C (second compound 3.16 µM, first compound 0.003 µM)?
Answer: 21.6%

Question: And the viability, T/C (second compound 3.16 µM, first compound 0.00949 µM)?
Answer: 0.47%

Question: And the viability, T/C (second compound 3.16 µM, first compound 0.03 µM)?
Answer: 0.19%

Question: What about the viability, T/C (second compound 3.16 µM, first compound 0.0949 µM) of the same compound?
Answer: 7.41%

Question: And the viability, T/C (second compound 3.16 µM, first compound 0.3 µM)?
Answer: 10.4%

Question: And the viability, T/C (second compound 10 µM, first compound 0.000949 µM)?
Answer: 38.6%

Question: And the viability, T/C (second compound 10 µM, first compound 0.003 µM)?
Answer: 20%

Question: And the viability, T/C (second compound 10 µM, first compound 0.00949 µM)?
Answer: 3.06%

Question: What about the viability, T/C (second compound 10 µM, first compound 0.03 µM) of the same compound?
Answer: 0.36%

Question: What about the viability, T/C (second compound 10 µM, first compound 0.0949 µM) of the same compound?
Answer: 3.69%

Question: What about the viability, T/C (second compound 10 µM, first compound 0.3 µM) of the same compound?
Answer: 6.49%
